Measurements published in patent US20250243171A1, “QUINAZOLINE COMPOUNDS FOR TREATMENT OF DISEASE” (Arthrosi Therapeutics, Inc., priority 2021, published 2025).

How the values were obtained:
Experiment in all cases: EC50 assay: Ba/F3 stable cell proliferation (CCK-8, 72 h)
Assay type in all cases: cell-based
[1] = target: T1, Ba/F3 stable cells (Homo sapiens, UniProt P00533, DUP767-769, cells depend on it); details: Ba/F3-EGFR V769-D770insASV cells
T1 construct: EC50 Ba/F3-EGFR V769-D770insASV; other: Ba/F3-EGFR V769-D770insASV cells, 72 h, CCK-8
Procedure, shortened: (§1)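 Ba/F3 stable cells were seeded at 4,000 cells/90 μL/well in 96-well plates and held 2 h at 37° C. in 5% CO2, then given 10 μL of serially titrated compound (0.1% DMSO final). After 72 h at 37° C., CCK-8 reagent was added for 4 hours and absorbance read at 450 nm to derive EC50.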

[2] = target: T2, Ba/F3 stable cells (Homo sapiens, UniProt P00533, DUP768-770, cells depend on it); details: Ba/F3-EGFR D770-N771insSVD cells
T2 construct: EC50 Ba/F3-EGFR D770-N771insSVD; other: Ba/F3-EGFR D770-N771insSVD cells, 72 h, CCK-8
Procedure, shortened: as §1

[3] = target: T3, Ba/F3 stable cells (Homo sapiens, UniProt P00533, DUP771-773, cells depend on it); details: Ba/F3-EGFR H773-V774insNPH cells
T3 construct: EC50 Ba/F3-EGFR H773-V774insNPH; other: Ba/F3-EGFR H773-V774insNPH cells, 72 h, CCK-8
Procedure, shortened: as §1

[4] = target: T4, Ba/F3 stable cells (Homo sapiens, UniProt P00533, INS763FQEA, cells depend on it); details: Ba/F3-EGFR A763-Y764insFQEA cells
T4 construct: EC50 Ba/F3-EGFR A763-Y764insFQEA; other: Ba/F3-EGFR A763-Y764insFQEA cells, 72 h, CCK-8
Procedure, shortened: as §1

[5] = target: T5, Ba/F3 stable cells (Homo sapiens, UniProt P00533, T790M/L858R, cells depend on it); details: Ba/F3-EGFR L858R-T790M cells
T5 construct: EC50 Ba/F3-EGFR L858R-T790M; other: Ba/F3-EGFR L858R-T790M cells, 72 h, CCK-8
Procedure, shortened: as §1

[6] = target: T6, Ba/F3 stable cells (Homo sapiens, UniProt P04626, DUP772-775, cells depend on it); details: Ba/F3-HER2 A775-G776insYVMA cells
T6 construct: EC50 Ba/F3-HER2 A775-G776insYVMA; other: Ba/F3-HER2 A775-G776insYVMA cells, 72 h, CCK-8
Procedure, shortened: as §1

T6 sequence (P04626 with tags, fused parts or gaps DUP772-775): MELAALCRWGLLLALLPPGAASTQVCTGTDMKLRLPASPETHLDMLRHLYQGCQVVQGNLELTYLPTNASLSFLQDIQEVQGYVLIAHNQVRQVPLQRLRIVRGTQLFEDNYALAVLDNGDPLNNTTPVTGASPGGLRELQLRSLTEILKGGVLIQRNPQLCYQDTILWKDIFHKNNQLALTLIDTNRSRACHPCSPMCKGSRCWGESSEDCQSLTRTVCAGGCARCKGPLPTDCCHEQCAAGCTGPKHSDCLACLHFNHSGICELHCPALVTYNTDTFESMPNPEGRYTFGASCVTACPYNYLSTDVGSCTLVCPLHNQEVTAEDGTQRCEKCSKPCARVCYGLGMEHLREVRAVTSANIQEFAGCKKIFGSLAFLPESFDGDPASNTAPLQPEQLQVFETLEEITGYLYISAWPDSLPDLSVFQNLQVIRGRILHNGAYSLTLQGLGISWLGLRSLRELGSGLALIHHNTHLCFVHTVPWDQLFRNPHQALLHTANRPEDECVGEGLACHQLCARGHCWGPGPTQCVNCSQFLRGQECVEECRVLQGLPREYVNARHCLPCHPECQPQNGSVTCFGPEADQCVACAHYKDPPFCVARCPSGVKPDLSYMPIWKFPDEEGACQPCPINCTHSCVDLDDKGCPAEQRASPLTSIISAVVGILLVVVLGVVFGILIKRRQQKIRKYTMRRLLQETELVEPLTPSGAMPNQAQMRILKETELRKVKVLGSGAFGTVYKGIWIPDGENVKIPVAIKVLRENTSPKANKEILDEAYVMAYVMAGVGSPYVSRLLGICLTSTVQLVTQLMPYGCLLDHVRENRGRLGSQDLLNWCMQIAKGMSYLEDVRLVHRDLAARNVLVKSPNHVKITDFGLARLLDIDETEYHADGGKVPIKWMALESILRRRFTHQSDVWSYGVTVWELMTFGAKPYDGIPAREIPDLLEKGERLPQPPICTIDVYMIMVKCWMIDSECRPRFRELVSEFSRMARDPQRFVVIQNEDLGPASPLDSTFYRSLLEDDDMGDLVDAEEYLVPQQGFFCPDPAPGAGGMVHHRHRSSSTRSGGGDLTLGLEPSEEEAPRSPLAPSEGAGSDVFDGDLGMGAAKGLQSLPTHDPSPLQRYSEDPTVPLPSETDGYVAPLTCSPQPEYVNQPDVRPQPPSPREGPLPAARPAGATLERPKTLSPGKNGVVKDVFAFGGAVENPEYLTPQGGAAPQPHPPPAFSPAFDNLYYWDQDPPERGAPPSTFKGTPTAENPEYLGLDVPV
T3 sequence (P00533 with tags, fused parts or gaps DUP771-773): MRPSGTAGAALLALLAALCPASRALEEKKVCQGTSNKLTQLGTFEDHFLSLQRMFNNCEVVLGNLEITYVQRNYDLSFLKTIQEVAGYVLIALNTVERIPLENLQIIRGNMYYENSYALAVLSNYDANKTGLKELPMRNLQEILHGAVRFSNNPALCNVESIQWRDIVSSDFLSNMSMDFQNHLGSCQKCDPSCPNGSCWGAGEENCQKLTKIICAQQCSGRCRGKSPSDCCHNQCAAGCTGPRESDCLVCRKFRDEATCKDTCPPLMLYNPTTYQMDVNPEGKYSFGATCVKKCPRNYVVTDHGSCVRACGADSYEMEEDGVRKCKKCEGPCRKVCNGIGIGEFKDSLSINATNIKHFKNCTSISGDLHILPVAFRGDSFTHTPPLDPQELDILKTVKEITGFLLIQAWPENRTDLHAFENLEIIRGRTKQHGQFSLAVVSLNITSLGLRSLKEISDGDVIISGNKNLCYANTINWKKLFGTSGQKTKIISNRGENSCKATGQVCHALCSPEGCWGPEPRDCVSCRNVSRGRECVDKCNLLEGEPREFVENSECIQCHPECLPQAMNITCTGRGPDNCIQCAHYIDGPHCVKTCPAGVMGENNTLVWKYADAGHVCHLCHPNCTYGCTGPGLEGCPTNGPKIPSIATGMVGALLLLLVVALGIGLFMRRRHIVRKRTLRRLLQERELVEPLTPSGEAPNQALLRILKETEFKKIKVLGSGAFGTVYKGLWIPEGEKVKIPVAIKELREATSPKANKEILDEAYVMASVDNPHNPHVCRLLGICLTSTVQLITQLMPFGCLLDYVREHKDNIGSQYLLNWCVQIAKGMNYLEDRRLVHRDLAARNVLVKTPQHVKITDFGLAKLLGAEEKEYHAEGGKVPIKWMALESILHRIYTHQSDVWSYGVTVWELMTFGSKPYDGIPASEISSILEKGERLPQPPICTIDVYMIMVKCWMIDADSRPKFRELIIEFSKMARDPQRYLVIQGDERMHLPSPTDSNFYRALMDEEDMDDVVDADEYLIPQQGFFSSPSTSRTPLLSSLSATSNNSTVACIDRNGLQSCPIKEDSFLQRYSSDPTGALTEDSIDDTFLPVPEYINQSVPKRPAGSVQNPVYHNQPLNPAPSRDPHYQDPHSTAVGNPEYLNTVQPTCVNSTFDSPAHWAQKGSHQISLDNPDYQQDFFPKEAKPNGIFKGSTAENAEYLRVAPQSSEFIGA
T1 sequence (P00533 with tags, fused parts or gaps DUP767-769): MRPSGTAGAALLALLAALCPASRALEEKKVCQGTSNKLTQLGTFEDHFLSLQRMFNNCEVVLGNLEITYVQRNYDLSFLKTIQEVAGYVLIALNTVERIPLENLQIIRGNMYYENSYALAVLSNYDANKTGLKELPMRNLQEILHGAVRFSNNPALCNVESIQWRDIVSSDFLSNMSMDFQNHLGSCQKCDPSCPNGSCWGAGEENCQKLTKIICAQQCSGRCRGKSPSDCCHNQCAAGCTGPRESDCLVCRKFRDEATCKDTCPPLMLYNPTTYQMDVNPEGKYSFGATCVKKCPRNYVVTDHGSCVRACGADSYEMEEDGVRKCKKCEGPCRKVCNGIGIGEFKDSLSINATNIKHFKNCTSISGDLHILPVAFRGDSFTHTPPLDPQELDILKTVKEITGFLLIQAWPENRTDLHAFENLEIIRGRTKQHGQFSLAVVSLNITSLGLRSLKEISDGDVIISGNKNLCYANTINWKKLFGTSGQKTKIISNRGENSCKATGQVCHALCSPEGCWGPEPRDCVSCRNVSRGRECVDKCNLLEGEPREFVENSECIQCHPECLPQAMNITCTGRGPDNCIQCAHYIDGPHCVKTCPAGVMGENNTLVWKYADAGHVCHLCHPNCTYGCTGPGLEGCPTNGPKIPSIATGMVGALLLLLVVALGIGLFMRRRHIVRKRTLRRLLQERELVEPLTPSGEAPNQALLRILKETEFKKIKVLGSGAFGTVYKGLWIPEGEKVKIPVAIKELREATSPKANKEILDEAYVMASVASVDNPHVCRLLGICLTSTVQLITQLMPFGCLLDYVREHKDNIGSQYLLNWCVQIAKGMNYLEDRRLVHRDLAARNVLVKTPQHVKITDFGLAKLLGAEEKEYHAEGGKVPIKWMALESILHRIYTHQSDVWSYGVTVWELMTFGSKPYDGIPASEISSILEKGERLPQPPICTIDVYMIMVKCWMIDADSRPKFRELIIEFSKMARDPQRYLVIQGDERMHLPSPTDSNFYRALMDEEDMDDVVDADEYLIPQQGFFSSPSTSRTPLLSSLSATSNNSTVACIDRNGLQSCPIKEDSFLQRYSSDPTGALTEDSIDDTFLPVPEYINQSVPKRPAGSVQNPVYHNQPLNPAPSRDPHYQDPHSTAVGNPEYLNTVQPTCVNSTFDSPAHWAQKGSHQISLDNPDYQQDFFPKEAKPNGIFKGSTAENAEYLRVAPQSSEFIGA
T4 sequence (P00533 with tags, fused parts or gaps INS763FQEA): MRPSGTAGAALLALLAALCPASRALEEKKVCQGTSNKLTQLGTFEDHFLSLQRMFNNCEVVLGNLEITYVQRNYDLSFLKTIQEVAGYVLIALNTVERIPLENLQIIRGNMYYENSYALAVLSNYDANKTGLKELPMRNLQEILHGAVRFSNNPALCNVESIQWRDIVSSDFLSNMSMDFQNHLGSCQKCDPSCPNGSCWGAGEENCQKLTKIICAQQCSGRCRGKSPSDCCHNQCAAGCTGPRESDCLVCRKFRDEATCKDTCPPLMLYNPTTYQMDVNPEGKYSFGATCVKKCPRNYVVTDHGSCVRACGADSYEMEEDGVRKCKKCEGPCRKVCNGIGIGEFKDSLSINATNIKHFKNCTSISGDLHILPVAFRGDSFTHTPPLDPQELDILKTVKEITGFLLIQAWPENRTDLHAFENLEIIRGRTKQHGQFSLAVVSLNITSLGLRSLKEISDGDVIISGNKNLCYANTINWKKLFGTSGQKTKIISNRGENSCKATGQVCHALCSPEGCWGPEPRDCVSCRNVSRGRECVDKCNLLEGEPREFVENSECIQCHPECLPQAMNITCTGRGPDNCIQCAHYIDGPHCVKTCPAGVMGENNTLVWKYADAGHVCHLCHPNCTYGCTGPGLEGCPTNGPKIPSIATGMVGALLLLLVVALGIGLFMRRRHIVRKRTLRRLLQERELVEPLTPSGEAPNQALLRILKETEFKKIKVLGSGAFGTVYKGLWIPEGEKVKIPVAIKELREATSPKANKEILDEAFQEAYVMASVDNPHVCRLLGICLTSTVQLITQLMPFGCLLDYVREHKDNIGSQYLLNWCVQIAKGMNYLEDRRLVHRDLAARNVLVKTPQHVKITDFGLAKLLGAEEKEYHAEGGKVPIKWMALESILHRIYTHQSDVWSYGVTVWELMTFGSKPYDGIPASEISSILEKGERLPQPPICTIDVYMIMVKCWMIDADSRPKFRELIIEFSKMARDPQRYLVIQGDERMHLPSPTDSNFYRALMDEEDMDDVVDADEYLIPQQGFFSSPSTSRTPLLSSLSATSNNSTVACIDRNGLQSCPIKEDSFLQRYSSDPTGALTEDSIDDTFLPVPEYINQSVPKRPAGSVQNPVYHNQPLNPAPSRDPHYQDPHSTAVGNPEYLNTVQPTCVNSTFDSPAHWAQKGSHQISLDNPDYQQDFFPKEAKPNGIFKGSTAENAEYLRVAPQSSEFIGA

| EC50 [1] [µM] | EC50 [2] [µM] | EC50 [3] [µM] | EC50 [4] [µM] | EC50 [5] [µM] | EC50 [6] [µM] | Compound |
| --- | --- | --- | --- | --- | --- | --- |
| 0.2 to 1 | 0.2 to 1 | 0.2 to 1 | ≤ 0.2 | 0.2 to 1 | 0.2 to 1 | C#CC(=O)N1CCC=C(c2ccc3ncnc(Nc4ccc(Cl)c(Cl)c4F)c3c2)C1 [Compound 62, 1-(5-(4-((3,4-dichloro-2-fluorophenyl)amino)quinazolin-6-yl)-3,6-dihydropyridin-1(2H)-yl)prop-2-yn-1-one] |
| ≤ 0.2 | ≤ 0.2 | ≤ 0.2 | ≤ 0.2 | ≤ 0.2 | 0.2 to 1 | C#CC(=O)N1CCC=C(c2cc3c(Nc4ccc(Cl)c(Cl)c4F)ncnc3cc2OC)C1 [Compound 63, 1-(5-(4-((3,4-dichloro-2-fluorophenyl)amino)-7-methoxyquinazolin-6-yl)-3,6-dihydropyridin-1(2H)-yl)prop-2-yn-1-one] |
| ≤ 0.2 | 0.2 to 1 | ≤ 0.2 | ≤ 0.2 | ≤ 0.2 | ≤ 0.2 | C=CC(=O)N[C@H]1C[C@@H](Oc2cc3c(Nc4ccc(Cl)c(Cl)c4F)ncnc3cc2OC)C1 [Compound 66, N-((1s,3s)-3-((4-((3,4-dichloro-2-fluorophenyl)amino)-7-methoxyquinazolin-6-yl)oxy)cyclobutyl)acrylamide] |
| > 1 | > 1 | > 1 | 0.2 to 1 | > 1 | > 1 | C=CC(=O)NC1CC(Oc2cc3c(Nc4ccc(C)c5c4CCC5)ncnc3cc2OC)C1 (stereo not drawn) [Compound 67, N-(3-((7-methoxy-4-((7-methyl-2,3-dihydro-1H-inden-4-yl)amino)quinazolin-6-yl)oxy)cyclobutyl)acrylamide] |
| > 1 | > 1 | > 1 | > 1 | > 1 | > 1 | C=CC(=O)NC1CC(Oc2cc3c(Nc4ccc(F)c5c4CCC5=O)ncnc3cc2OC)C1 (stereo not drawn) [Compound 68, N-(3-((4-((7-fluoro-1-oxo-2,3-dihydro-1H-inden-4-yl)amino)-7-methoxyquinazolin-6-yl)oxy)cyclobutyl)acrylamide] |
| > 1 | > 1 | > 1 | > 1 | > 1 | > 1 | C=CC(=O)NC1CC(Oc2cc3c(Nc4ccc(F)c5c4CCC5O)ncnc3cc2OC)C1 (stereo not drawn) [Compound 69, N-(3-((4-((7-fluoro-1-hydroxy-2,3-dihydro-1H-inden-4-yl)amino)-7-methoxyquinazolin-6-yl)oxy)cyclobutyl)acrylamide] |
| > 1 | > 1 | > 1 | > 1 | > 1 | > 1 | C=CC(=O)NC1CC(Oc2cc3c(Nc4ccc5c(c4)CCCC5=O)ncnc3cc2OC)C1 (stereo not drawn) [Compound 70, N-(3-((7-methoxy-4-((5-oxo-5,6,7,8-tetrahydronaphthalen-2-yl)amino)quinazolin-6-yl)oxy)cyclobutyl)acrylamide] |
| > 1 | > 1 | > 1 | > 1 | > 1 | > 1 | C=CC(=O)NC1CC(Oc2cc3c(Nc4ccc5c(c4)CCCC5O)ncnc3cc2OC)C1 (stereo not drawn) [Compound 71, N-(3-((4-((5-hydroxy-5,6,7,8-tetrahydronaphthalen-2-yl)amino)-7-methoxyquinazolin-6-yl)oxy)cyclobutyl)acrylamide] |
| ≤ 0.2 | ≤ 0.2 | ≤ 0.2 | ≤ 0.2 | 0.2 to 1 | 0.2 to 1 | C=CC(=O)N(C)C1CC(Oc2cc3c(Nc4ccc(Cl)c(Cl)c4F)ncnc3cc2OC)C1 (stereo not drawn) [Compound 72, N-(3-((4-((3,4-dichloro-2-fluorophenyl)amino)-7-methoxyquinazolin-6-yl)oxy)cyclobutyl)-N-methylacrylamide] |
| ≤ 0.2 | 0.2 to 1 | 0.2 to 1 | ≤ 0.2 | > 1 | 0.2 to 1 | C=CC(=O)NC1CC(Oc2cc3c(Nc4ccc(Cl)c(Cl)c4)ncnc3cc2OC)C1 (stereo not drawn) [Compound 73, N-(3-((4-((3,4-dichlorophenyl)amino)-7-methoxyquinazolin-6-yl)oxy)cyclobutyl)acrylamide] |
| ≤ 0.2 | 0.2 to 1 | ≤ 0.2 | ≤ 0.2 | 0.2 to 1 | ≤ 0.2 | C=CC(=O)NC1CC(Oc2cc3c(Nc4cccc(Cl)c4F)ncnc3cc2OC)C1 (stereo not drawn) [Compound 74, N-(3-((4-((3-chloro-2-fluorophenyl)amino)-7-methoxyquinazolin-6-yl)oxy)cyclobutyl)acrylamide] |
| 0.2 to 1 | > 1 | 0.2 to 1 | ≤ 0.2 | 0.2 to 1 | 0.2 to 1 | C=CC(=O)NC1CC(Oc2cc3c(Nc4ccc(Cl)c(F)c4Cl)ncnc3cc2OC)C1 (stereo not drawn) [Compound 75, N-(3-((4-((2,4-dichloro-3-fluorophenyl)amino)-7-methoxyquinazolin-6-yl)oxy)cyclobutyl)acrylamide] |
| ≤ 0.2 | 0.2 to 1 | 0.2 to 1 | ≤ 0.2 | > 1 | 0.2 to 1 | C=CC(=O)NC1CC(Oc2cc3c(Nc4ccc(F)c(Cl)c4Cl)ncnc3cc2OC)C1 (stereo not drawn) [Compound 76, N-(3-((4-((2,3-dichloro-4-fluorophenyl)amino)-7-methoxyquinazolin-6-yl)oxy)cyclobutyl)acrylamide] |
| 0.2 to 1 | > 1 | 0.2 to 1 | ≤ 0.2 | > 1 | 0.2 to 1 | C=CC(=O)N[C@H]1C[C@H](Oc2cc3c(Nc4ccccc4F)ncnc3cc2OC)C1 [Compound 77, N-(3-((4-((2-fluorophenyl)amino)-7-methoxyquinazolin-6-yl)oxy)cyclobutyl)acrylamide] |
| ≤ 0.2 | > 1 | 0.2 to 1 | ≤ 0.2 | > 1 | 0.2 to 1 | C=CC(=O)NC1CC(Oc2cc3c(Nc4ccc(Cl)cc4F)ncnc3cc2OC)C1 (stereo not drawn) [Compound 78, N-(3-((4-((4-chloro-2-fluorophenyl)amino)-7-methoxyquinazolin-6-yl)oxy)cyclobutyl)acrylamide] |
| ≤ 0.2 | > 1 | 0.2 to 1 | ≤ 0.2 | > 1 | 0.2 to 1 | C=CC(=O)N[C@H]1C[C@H](Oc2cc3c(Nc4ccc(Cl)c(Cl)c4F)ncnc3cc2OC)C1 [Compound 79, N-((1r,3r)-3-((4-((3,4-dichloro-2-fluorophenyl)amino)-7-methoxyquinazolin-6-yl)oxy)cyclobutyl)acrylamide] |
| > 1 | > 1 | > 1 | ≤ 0.2 | > 1 | > 1 | C=CC(=O)NC1CC(Oc2cc3c(Nc4ccc5ccccc5c4)ncnc3cc2OC)C1 (stereo not drawn) [Compound 80, N-(3-((7-methoxy-4-(naphthalen-2-ylamino)quinazolin-6-yl)oxy)cyclobutyl)acrylamide] |
| ≤ 0.2 | ≤ 0.2 | 0.2 to 1 | ≤ 0.2 | 0.2 to 1 | 0.2 to 1 | C=CC(=O)NC1CC(Oc2cc3c(Nc4cccc5ccccc45)ncnc3cc2OC)C1 (stereo not drawn) [Compound 81, N-(3-((7-methoxy-4-(naphthalen-1-ylamino)quinazolin-6-yl)oxy)cyclobutyl)acrylamide] |
| ≤ 0.2 | 0.2 to 1 | 0.2 to 1 | ≤ 0.2 | 0.2 to 1 | 0.2 to 1 | C=CC(=O)N[C@H]1C[C@@H](Oc2cc3c(Nc4ccc(Cl)c(Cl)c4)ncnc3cc2OC)C1 [Compound 82, N-((1s,3s)-3-((4-((3,4-dichlorophenyl)amino)-7-methoxyquinazolin-6-yl)oxy)cyclobutyl)acrylamide] |
| ≤ 0.2 | 0.2 to 1 | ≤ 0.2 | ≤ 0.2 | 0.2 to 1 | 0.2 to 1 | C=CC(=O)N[C@H]1C[C@@H](Oc2cc3c(Nc4cccc5ccccc45)ncnc3cc2OC)C1 [Compound 83, N-((1s,3s)-3-((7-methoxy-4-(naphthalen-1-ylamino)quinazolin-6-yl)oxy)cyclobutyl)acrylamide] |
| 0.2 to 1 | > 1 | > 1 | ≤ 0.2 | > 1 | > 1 | C=CC(=O)NC1CC(Oc2cc3c(NCc4ccc(F)cc4)ncnc3cc2OC)C1 (stereo not drawn) [Compound 84, N-(3-((4-((4-fluorobenzyl)amino)-7-methoxyquinazolin-6-yl)oxy)cyclobutyl)acrylamide] |
